In ChEMBL document CHEMBL1681739, “KDR inhibitor with the intramolecular non-bonded interaction: conformation-activity relationships of novel indole-3-carboxamide derivatives” (Bioorg Med Chem Lett, 2011):
pIC50: −log10 of the molar value.

How the values were obtained:
[1] = biological target: T1, Vascular endothelial growth factor receptor 2 (Homo sapiens, UniProt P35968); experiment: Inhibition of KDR assessed as phosphorylation level of substrate at 10 uM by ELISA
[2] = biological target: T1, Vascular endothelial growth factor receptor 2; experiment: Inhibition of KDR assessed as phosphorylation level of substrate by ELISA

T1 sequence (P35968 whole entry): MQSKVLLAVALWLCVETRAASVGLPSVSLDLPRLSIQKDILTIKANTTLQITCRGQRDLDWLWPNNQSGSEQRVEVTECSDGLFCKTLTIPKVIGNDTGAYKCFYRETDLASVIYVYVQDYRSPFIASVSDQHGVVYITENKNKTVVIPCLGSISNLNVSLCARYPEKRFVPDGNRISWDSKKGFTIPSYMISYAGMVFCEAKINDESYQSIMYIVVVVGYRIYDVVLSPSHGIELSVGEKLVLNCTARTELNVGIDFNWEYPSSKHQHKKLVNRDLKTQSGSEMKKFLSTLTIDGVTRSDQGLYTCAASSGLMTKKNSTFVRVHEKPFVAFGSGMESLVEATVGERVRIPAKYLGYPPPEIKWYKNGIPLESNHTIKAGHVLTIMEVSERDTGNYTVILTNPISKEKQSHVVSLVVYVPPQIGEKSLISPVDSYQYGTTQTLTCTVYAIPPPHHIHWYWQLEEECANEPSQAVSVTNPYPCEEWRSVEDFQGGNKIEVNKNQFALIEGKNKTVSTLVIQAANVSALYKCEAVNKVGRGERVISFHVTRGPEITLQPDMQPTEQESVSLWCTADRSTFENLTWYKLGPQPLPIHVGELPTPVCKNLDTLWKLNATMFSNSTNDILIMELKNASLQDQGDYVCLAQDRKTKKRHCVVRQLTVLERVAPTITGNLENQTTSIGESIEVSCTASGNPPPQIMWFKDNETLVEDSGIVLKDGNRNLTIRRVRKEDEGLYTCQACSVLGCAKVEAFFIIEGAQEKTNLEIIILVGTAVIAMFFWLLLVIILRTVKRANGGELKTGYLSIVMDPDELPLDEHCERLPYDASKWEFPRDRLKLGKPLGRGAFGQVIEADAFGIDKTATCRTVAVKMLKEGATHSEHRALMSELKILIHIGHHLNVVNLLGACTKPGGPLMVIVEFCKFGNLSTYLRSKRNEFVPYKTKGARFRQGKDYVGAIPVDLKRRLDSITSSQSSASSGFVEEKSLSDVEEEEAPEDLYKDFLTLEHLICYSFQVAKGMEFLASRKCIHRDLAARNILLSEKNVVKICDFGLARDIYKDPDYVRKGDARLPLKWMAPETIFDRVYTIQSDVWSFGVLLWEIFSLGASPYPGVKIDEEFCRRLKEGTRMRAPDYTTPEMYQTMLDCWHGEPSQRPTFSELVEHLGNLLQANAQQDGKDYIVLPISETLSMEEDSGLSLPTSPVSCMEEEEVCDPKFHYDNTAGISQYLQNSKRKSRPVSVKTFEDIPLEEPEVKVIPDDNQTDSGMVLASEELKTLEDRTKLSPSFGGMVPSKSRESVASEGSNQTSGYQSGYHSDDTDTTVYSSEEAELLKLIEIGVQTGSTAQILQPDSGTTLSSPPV

| Compound | inhibition [1] [%] | pIC50 [2] |
| --- | --- | --- |
| O=C(Nc1ccc(OC(F)(F)F)cc1)c1c[nH]c2cccc(NCc3ccncc3)c12 | 14 | – |
| O=C(Nc1ccc(Cl)cc1)c1c[nH]c2cccc(OCc3ccncc3)c12 | 9 | – |
| CC(C)(C)c1ccc(NC(=O)c2c[nH]c3cccc(OCc4ccncc4)c23)cc1 | 6 | – |
| O=C(Nc1cccc(Cl)c1)c1c[nH]c2cccc(NCc3ccncc3)c12 | 18 | – |
| CC(C)(C)c1ccc(NC(=O)c2c[nH]c3cccc(NCc4ccncc4)c23)cc1 | 25 | – |
| Cc1cc(C)cc(NC(=O)c2c[nH]c3cccc(NCc4ccncc4)c23)c1 | 19 | – |
| O=C(Nc1ccc2c(c1)CCC2)c1c[nH]c2cccc(OCc3ccncc3)c12 | 19 | – |
| O=C(Nc1ccc(OC(F)(F)F)cc1)c1c[nH]c2cccc(SCc3ccncc3)c12 | 35 | – |
| CC(C)(C)c1ccc(NC(=O)c2c[nH]c3cccc(SCc4ccncc4)c23)cc1 | 51 | – |
| O=C(Nc1ccc2c(c1)CCC2)c1c[nH]c2cccc(NCc3ccncc3)c12 | 27 | – |
| O=C(Nc1cccc(C(F)(F)F)c1)c1c[nH]c2cccc(NCc3ccncc3)c12 | 25 | – |
| Cc1cccc(NC(=O)c2c[nH]c3cccc(NCc4ccncc4)c23)c1 | 18 | – |
| O=C(Nc1cccc(C(F)(F)F)c1)c1c[nH]c2cccc(OCc3ccncc3)c12 | 4 | – |
| O=C(Nc1ccc(Cl)cc1)c1c[nH]c2cccc(NCc3ccncc3)c12 | 23 | – |

The next lines start with the values.

| inhibition [1] [%] | pIC50 [2] | Compound |
| --- | --- | --- |
| 59 | – | O=C(Nc1ccc2c(c1)CCC2)c1c[nH]c2cccc(SCc3ccncc3)c12 |
| 55 | – | O=C(Nc1cc2ccccc2cn1)c1c[nH]c2cccc(NCc3ccncc3)c12 |
| 35 | – | O=C(Nc1cccc(Cl)c1)c1c[nH]c2cccc(SCc3ccncc3)c12 |
| 34 | – | O=C(Nc1ccc(Cl)cc1)c1c[nH]c2cccc(SCc3ccncc3)c12 |
| 92 | 6.51 | O=C(Nc1cccc(C(F)(F)F)c1)c1c[nH]c2cccc(SCc3ccncc3)c12 |
| 52 | – | Cc1cccc(NC(=O)c2c[nH]c3cccc(SCc4ccncc4)c23)c1 |
| 74 | – | O=C(Nc1cc2ccccc2cn1)c1c[nH]c2cccc(SCc3ccncc3)c12 |
| 35 | – | Cc1cc(C)cc(NC(=O)c2c[nH]c3cccc(SCc4ccncc4)c23)c1 |
